Literature values, collected in patent US20180000827A1 (SYNTHON B.V., priority 2014, published 2018).

In the case of `COc1cc2ncnc(Nc3ccc(F)c(Cl)c3)c2cc1OCCCN1CCOCC1` [Gefitinib, 4-(3-chloro-4-fluorophenylamino)-7-methoxy-6-[3-(4-morpholinyl)propoxy] quinazoline], the “solubility dependence on pH” value is given as “highly dependent upon pH”.
